# Active and inactive are the calls of the source. No cut-off for these calls is given here.
# Key:
# A549 = test: Cytotoxicity against human A549 cells at 10 to 20 uM after 72 hrs by MTT assay; assay type: cell-based; details: a549, 72 h
# SW620/AD300 [1] = test: Effect on ABCB1 expression in human SW620/AD300 cells at 20 uM up to 96 hrs by Western blot analysis; assay type: functional, cell-based
# HEK-293T [2] = test: Potentiation of cisplatin-induced cytotoxicity in human HEK293T/NC cells assessed as fold reduction in cisplatin IC50 at 10 uM after 72 hrs by MTT assay relative to cisplatin; assay type: functional
# SW-620 [3] = test: Potentiation of paclitaxel-induced cytotoxicity in human SW620 cells assessed as fold reduction in paclitaxel IC50 at 20 uM after 72 hrs by MTT assay relative to paclitaxel alone; assay type: functional
# SW-620 [4] = test: Potentiation of cisplatin-induced cytotoxicity in human SW620 cells assessed as fold reduction in cisplatin IC50 at 10 uM after 72 hrs by MTT assay relative to cisplatin alone; assay type: functional
# SGC-7901 = test: Cytotoxicity against human SGC7901 cells at 10 to 20 uM after 72 hrs by MTT assay; assay type: cell-based; details: sgc-7901, 72 h
# SW620/AD300 [5] = test: Effect on subcellular localization of ABCB1 in human SW620/AD300 cells at 10 to 20 uM after 72 hrs by Hoechst 33342 staining-based immunofluorescence assay; assay type: functional, cell-based
# HEK-293T [6] = test: Potentiation of paclitaxel-induced cytotoxicity in human HEK293T/NC cells assessed as fold reduction in paclitaxel IC50 at 20 uM after 72 hrs by MTT assay relative to paclitaxel; assay type: functional
# SW-620 [7] = test: Potentiation of paclitaxel-induced cytotoxicity in human SW620 cells assessed as fold reduction in paclitaxel IC50 at 10 uM after 72 hrs by MTT assay relative to paclitaxel alone; assay type: functional
# [8] = target: T1, ATP-dependent translocase ABCB1 (Homo sapiens, UniProt P08183); test: Inhibition of ABCB1 in human SW620/AD300 cells assessed as intracellular accumulation of paclitaxel at 10 to 20 uM after 72 hrs by UPLC analysis; assay type: cell-based
# HEK-293T [9] = test: Potentiation of doxorubicin-induced cytotoxicity in human HEK293T/NC cells assessed as fold reduction in doxorubicin IC50 at 10 uM after 72 hrs by MTT assay relative to doxorubicin; assay type: functional
# ECa-109 cell line = test: Cytotoxicity against human EC109 cells at 10 to 20 uM after 72 hrs by MTT assay; assay type: cell-based; details: eca-109, 72 h
# MGC-803 = test: Cytotoxicity against human MGC803 cells at 10 to 20 uM after 72 hrs by MTT assay; assay type: cell-based; details: mgc-803, 72 h
# HEK-293T [10] = test: Potentiation of doxorubicin-induced cytotoxicity in human HEK293T/NC cells assessed as fold reduction in doxorubicin IC50 at 20 uM after 72 hrs by MTT assay relative to doxorubicin; assay type: functional
# TE-1 = test: Cytotoxicity against human TE1 cells at 10 to 20 uM after 72 hrs by MTT assay; assay type: cell-based; details: te-1, 72 h
# HEK-293T [11] = test: Potentiation of paclitaxel-induced cytotoxicity in human HEK293T/NC cells assessed as fold reduction in paclitaxel IC50 at 10 uM after 72 hrs by MTT assay relative to paclitaxel; assay type: functional
# SW-620 [12] = test: Potentiation of doxorubicin-induced cytotoxicity in human SW620 cells assessed as fold reduction in doxorubicin IC50 at 20 uM after 72 hrs by MTT assay relative to doxorubicin alone; assay type: functional
# SW620/AD300 [13] = test: Effect on ABCB1 expression in human SW620/AD300 cells at 10 to 20 uM by Western blot analysis; assay type: functional, cell-based
# [14] = target: T1, ATP-dependent translocase ABCB1; test: Binding affinity to ABCB1 in human SW620/AD300 cells assessed as thermal stabilization incubated for 30 mins at 43 to 80 degC by CETSA; assay type: cell-based; details: 0.5 h
# SW-620 [15] = test: Potentiation of cisplatin-induced cytotoxicity in human SW620 cells assessed as fold reduction in cisplatin IC50 at 20 uM after 72 hrs by MTT assay relative to cisplatin alone; assay type: functional
# SW-620 [16] = test: Potentiation of doxorubicin-induced cytotoxicity in human SW620 cells assessed as fold reduction in doxorubicin IC50 at 10 uM after 72 hrs by MTT assay relative to doxorubicin alone; assay type: functional
# SW-620 [17] = test: Potentiation of paclitaxel-induced cytotoxicity in human SW620 cells assessed as fold reduction in paclitaxel IC50 at 4 uM after 72 hrs by MTT assay relative to paclitaxel alone; assay type: functional
# HEK-293T [18] = test: Potentiation of paclitaxel-induced cytotoxicity in human HEK293T/NC cells assessed as fold reduction in paclitaxel IC50 at 4 uM after 72 hrs by MTT assay relative to paclitaxel; assay type: functional
# HEK-293T [19] = test: Potentiation of cisplatin-induced cytotoxicity in human HEK293T/NC cells assessed as fold reduction in cisplatin IC50 at 4 uM after 72 hrs by MTT assay relative to cisplatin; assay type: functional
# SW-620 [20] = test: Potentiation of doxorubicin-induced cytotoxicity in human SW620 cells assessed as fold reduction in doxorubicin IC50 at 4 uM after 72 hrs by MTT assay relative to doxorubicin alone; assay type: functional
# HEK-293T [21] = test: Potentiation of doxorubicin-induced cytotoxicity in human HEK293T/NC cells assessed as fold reduction in doxorubicin IC50 at 4 uM after 72 hrs by MTT assay relative to doxorubicin; assay type: functional
# SW-620 [22] = test: Potentiation of cisplatin-induced cytotoxicity in human SW620 cells assessed as fold reduction in cisplatin IC50 at 4 uM after 72 hrs by MTT assay relative to cisplatin alone; assay type: functional
# T1 sequence (P08183 whole entry): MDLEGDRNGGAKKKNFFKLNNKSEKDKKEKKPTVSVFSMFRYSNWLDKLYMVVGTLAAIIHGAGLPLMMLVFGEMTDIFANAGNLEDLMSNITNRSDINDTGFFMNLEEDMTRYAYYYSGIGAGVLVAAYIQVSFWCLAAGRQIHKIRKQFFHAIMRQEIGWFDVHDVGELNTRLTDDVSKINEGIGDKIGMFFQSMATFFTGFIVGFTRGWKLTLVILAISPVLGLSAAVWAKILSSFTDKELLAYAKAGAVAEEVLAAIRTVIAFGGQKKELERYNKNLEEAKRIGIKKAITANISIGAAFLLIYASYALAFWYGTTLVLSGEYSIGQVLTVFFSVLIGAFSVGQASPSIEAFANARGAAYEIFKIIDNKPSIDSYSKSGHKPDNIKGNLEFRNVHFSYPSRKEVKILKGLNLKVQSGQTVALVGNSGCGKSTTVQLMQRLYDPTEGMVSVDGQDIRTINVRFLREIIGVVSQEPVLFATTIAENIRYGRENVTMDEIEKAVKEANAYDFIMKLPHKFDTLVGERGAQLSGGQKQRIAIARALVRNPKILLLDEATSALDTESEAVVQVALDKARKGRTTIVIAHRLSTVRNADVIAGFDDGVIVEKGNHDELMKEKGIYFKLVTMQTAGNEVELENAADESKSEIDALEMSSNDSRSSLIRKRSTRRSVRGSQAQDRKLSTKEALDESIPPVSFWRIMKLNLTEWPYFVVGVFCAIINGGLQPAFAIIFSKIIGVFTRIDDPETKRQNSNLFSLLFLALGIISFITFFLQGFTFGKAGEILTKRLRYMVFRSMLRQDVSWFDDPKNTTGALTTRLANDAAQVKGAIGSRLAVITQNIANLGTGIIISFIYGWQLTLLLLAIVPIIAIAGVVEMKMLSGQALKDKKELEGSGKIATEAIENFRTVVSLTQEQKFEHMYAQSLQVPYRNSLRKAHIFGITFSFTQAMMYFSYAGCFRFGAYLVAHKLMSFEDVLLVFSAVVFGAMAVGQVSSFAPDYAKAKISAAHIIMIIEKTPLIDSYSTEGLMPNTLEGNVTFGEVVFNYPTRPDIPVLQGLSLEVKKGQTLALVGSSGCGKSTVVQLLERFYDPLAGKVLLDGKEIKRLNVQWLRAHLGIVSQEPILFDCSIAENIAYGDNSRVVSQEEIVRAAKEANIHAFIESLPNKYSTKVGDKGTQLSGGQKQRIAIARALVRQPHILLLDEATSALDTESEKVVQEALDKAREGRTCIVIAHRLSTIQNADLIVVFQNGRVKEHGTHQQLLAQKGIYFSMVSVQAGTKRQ
compound,measurement,setting,value
O=c1cc(-c2ccccc2)[nH]c2nc(SCc3nc4ccccc4[nH]3)nn12,Activity,A549,Non-Toxic
same,Activity,SW620/AD300 [1],inactive
same,Ratio IC50,HEK-293T [2],1.04
same,Ratio IC50,SW-620 [3],0.81
same,Ratio IC50,SW-620 [4],1.07
same,Activity,SGC-7901,Non-Toxic
same,Activity,SW620/AD300 [5],inactive
same,Ratio IC50,HEK-293T [6],0.83
same,Ratio IC50,SW-620 [7],1.2
same,inhibition (INH),[8],Active
same,Ratio IC50,HEK-293T [9],1.14
same,Activity,ECa-109 cell line,Non-Toxic
same,Activity,MGC-803,Non-Toxic
same,Ratio IC50,HEK-293T [10],1.08
same,Activity,TE-1,Non-Toxic
same,Ratio IC50,HEK-293T [11],0.87
same,Ratio IC50,SW-620 [12],1.14
same,Activity,SW620/AD300 [13],inactive
same,Activity,[14],Active
same,Ratio IC50,SW-620 [15],0.97
same,Ratio IC50,SW-620 [16],1.17
COc1ccc(CCN(C)CCCC(C#N)(c2ccc(OC)c(OC)c2)C(C)C)cc1OC (configuration not stated),Ratio IC50,SW-620 [17],1.29
same,Ratio IC50,HEK-293T [18],0.84
same,Ratio IC50,HEK-293T [19],0.89
same,Ratio IC50,SW-620 [20],1.18
same,Ratio IC50,HEK-293T [21],1.07
same,Ratio IC50,SW-620 [22],1.1
